Data as given in PubChem BioAssay AID179 (DTP/NCI, 2004).
Activity calls are given as the source filed them.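 Rule for the calls: active = compounds giving half or more protection of infected cells from virus-caused growth loss, again on retest; inactive = the rest.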 Where a SMILES comes first, the peptide text is derived from it. The star is where a group is joined. Cbz = O=C(OCc1ccccc1)*

Tested on: CEM cells HIV-1 protection, formazan growth assay
Test: NCI AIDS Antiviral Assay
Conditions: for IC50: measured here: growth of uninfected CEM cells
Outline: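 Steps: treat uninfected and HIV-1-infected human CEM cells at five drug levels; quantify growth by soluble formazan; retest any compound reaching 50% protection; classify actives from the retest.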

Structure (SMILES)	EC50 [µM]	IC50 [µM]	outcome
Cc1cn(C2CC(CCCO)C(CO)O2)c(=O)[nH]c1=O (stereo not drawn)	> 871	> 871	
Cc1ccccc1N(CC(=O)O)S(=O)(=O)c1ccccc1			inactive
O=C(c1ccccc1)[C@H]1Nc2ccc(Cl)cc2[C@H]2CCC[C@@H]12	> 4.68	> 4.68	
Cc1cc(Cc2cc(C)c(NC(=O)C(=O)C3C(=O)NC(=S)NC3=O)c(C(C)C)c2)cc(C(C)C)c1NC(=O)C(=O)C1C(=O)NC(=S)NC1=O			inactive
COc1cc2c(cc1OC)C13CC[N+]4(C)CC5=CCOC6CC(=O)N2C1C6C5CC34[O-] (stereo not drawn)			inactive
O=C1OC[C@@H]2[C@@H](O)CCCCCN12	> 200	> 200	
CCOc1ccc(Nc2nc(C)c(C(=O)CC(=O)C(=O)Nc3ccc(Cl)c(C(F)(F)F)c3)s2)cc1	> 200	> 200	
Cc1cc(C)c(S(=O)(=O)N(CCCCN)OCCCN)c(C)c1	> 200	28.2	
COc1cc(/C=N/NC2=NCCCCN2)ccc1O	> 200	> 200	
O=C1/C(=C/c2cccc3ccccc23)Cc2ccccc21	> 200	97.7	
N=CCCN(CCC=N)c1ccc(/C=C2\CN(NC(=O)c3ccc(Cl)cc3)C(c3ccccc3)=N2)cc1	> 70.8	> 70.8	
NC(=S)Nc1nnc(-c2ccc(-c3nnc(NC(N)=S)o3)cc2)o1			inactive
OCC1(CO)CCCC(CO)(CO)C1O	> 200	> 200	
CCCCCCCC(=O)OCC1OC(n2cc(F)c(=O)[nH]c2=O)C(N)C(OC(=O)CCCCCCC)C1O (stereo not drawn)	> 47.9	38.9	
O=C1CN(S(=O)(=O)c2ccc([N+](=O)[O-])cc2)CC(=O)CN(S(=O)(=O)c2ccc([N+](=O)[O-])cc2)C1	> 200	> 200	
CCN(CC)C(=S)N=N/C(C)=C1/C=CC=CN1O	> 200	1.1	
O=C(O)c1cc2ccc(Cl)cc2c(O)c1C1=CCCCC1	> 166	33.9	
CCOC(=O)CC(N1CC1)N1CC1	> 200	> 200	
COC(=O)/C=C/C1C2C3(CCC(C)C12C)OCCS3 (stereo not drawn)	> 126	> 126	
O=c1c2ccccc2c(=O)n2n1C1CCC2C1	> 1100	> 1100	
CCC(CS(=O)(=O)O)[N+](=O)[O-] (stereo not drawn)	> 200	> 200	

Structure (SMILES)	EC50 [µM]	IC50 [µM]	outcome
COP(C)(=O)C(Cc1c[nH]c2ccccc12)NC(=O)OCc1ccccc1 (stereo not drawn)	> 200	> 200	
CCOC(=O)/C=C/c1ccccn1	> 1410	646	
C=CCCC(OCOCCOC)c1cc(C)c(O[Si](C)(C)C(C)(C)C)c(C)c1 (stereo not drawn)	> 50.1	29.5	
CCOC(=O)C[P+](c1cccc(F)c1)(c1cccc(F)c1)c1cccc(F)c1	> 200	166	
COC(=O)c1cc(C(=O)Nc2cc(Cc3cc(NC(=O)c4ccc(OC)c(C(=O)OC)c4)c(OC)c(C(=O)OC)c3)cc(C(=O)OC)c2OC)ccc1OC	> 200	> 200	
COCCCNC(=O)C1C(=O)C(=O)N(CCCOC)C1=O (stereo not drawn)			inactive
NC(=O)n1cnc(N)n1	> 200	> 200	
CC1CCC23COC(=O)C2=CCCC3C1(C)CC/C(=C/CO)CO (stereo not drawn)			inactive
O=C1N(Cc2ccccc2)CC(O)CN1Cc1ccccc1	> 200	174	
CNc1ncn(-c2c(C)cccc2C)c(=O)n1	> 200	> 200	
COc1ccc(S(=O)(=O)NCCSSCCNS(=O)(=O)c2ccc(OC)cc2)cc1	> 200	26.9	
Cn1c(=O)c2[nH]c(SSc3nc4c([nH]3)c(=O)n(C)c(=O)n4C)nc2n(C)c1=O	35.5	162	
O=c1cc(NNc2cccc(F)c2)[nH]c(=O)[nH]1	> 200	1.1	
COc1cc(C(C)c2cc3c(cc2OCCO)OCO3)cc(OC)c1OC (stereo not drawn)	> 347	0.447	
CC(C)c1ccc(Cc2ccc(C(C)C)c(NC(=O)C(=O)Cc3cnc4ccccc4n3)c2C(C)C)c(C(C)C)c1NC(=O)C(=O)Cc1cnc2ccccc2n1	> 13.2	> 13.2	
O=c1c(-c2ccc(O)cc2)coc2c(O)c(O)ccc12	> 200	28.8	
Oc1ccc(Cl)cc1C(c1cc(Cl)ccc1O)C(Cl)(Cl)Cl	9.77	16.6	
CCCCCCCCOCC(O)COC(=O)CCCCCCC (stereo not drawn)	> 251	20.9	
COC(=O)C1=C(C)N2CCCOC2(C)C(C(=O)OC)C1c1cccc(Cl)c1 (stereo not drawn)	> 200	112	
O=[N+]([O-])c1nccn1CC(O)c1ccccc1 (stereo not drawn)	> 1070	> 1070	
Cc1ccc2c(c1)C1(c3ccc(Cl)cc3)Oc3ccc(C)cc3C(c3ccc(Cl)cc3)(O2)O1	> 75.9	> 75.9	

Structure (SMILES)	EC50 [µM]	IC50 [µM]	outcome
N#CC(C#N)=C1SC(=Nc2ccccc2)C(=Nc2ccccc2)N1c1ccccc1	> 200	1	
O=C1C(=C2CCCC2)CC/C1=C1/SS/C(=C2/CCC(=C3CCCC3)C2=O)S1	> 200	120	
O=C(O)C(CO)NC(=O)C1CCCN1C(=O)OCc1ccccc1 (stereo not drawn) (Cbz-Pro-Ser-OH; configuration not given here)	> 77.6	> 77.6	
NC(=S)/N=C/C1=C(O)CCCC1=O	> 200	> 200	
N#CC(C#N)=C1/C(=C/C=C/C=C/C=C/c2ccc(N3CCCCC3)s2)S(=O)(=O)c2ccccc21	> 200	93.3	
Cc1cn([C@H]2C[C@@H](N(O)C(=O)Nc3ccccc3)[C@@H](CO)O2)c(=O)[nH]c1=O	> 200	> 200	
S=C(NCCc1ccccc1)N1CCC(CCCC2CCN(C(=S)NCCc3ccccc3)CC2)CC1	> 200	> 200	
O=C(O)c1cc(CCc2cc(O)ccc2O)ccc1O	> 182	28.8	
CN1CCN(CCSSCCN2CCN(C)CC2)CC1	> 200	> 200	
Cc1cc(C)c(C2CNCc3cc4c(cc32)CNCC4c2c(C)cc(C)cc2C)c(C)c1 (stereo not drawn)	> 20	2.57	
CN1CCC(OC(=O)Oc2ccccc2)(c2ccccc2)CC1	> 200	30.9	
O/N=C\C(=Nc1ccc(Cc2ccc(N=C(/C=N\O)NO)cc2)cc1)NO	> 355	39.8	
Cc1noc2c1CC(=O)c1ccccc1OC2	> 389	224	
CC12CCC3(OCCO3)C(OC(=O)c3ccccc3)=C1CCC21OCCO1 (stereo not drawn)			inactive
CN(C)C(=S)N1C(=S)N(c2ccccc2)C(=Nc2ccccc2)C1=Nc1ccccc1	> 200	170	
c1cc2cc(c1)CN1CCNCCN(CCNCC1)Cc1cccc(c1)CN1CCNCCN(CCNCC1)C2	> 50.1	> 50.1	
Cc1nc(N)c(N2CCN(Cc3ccccc3)CC2)c(=O)[nH]1	> 200	> 200	
CC(C)(C)C1CCC2c3c([nH]c4ccccc34)C3C(=O)N(c4ccccc4Cl)C(=O)C3C2C1 (stereo not drawn)	> 200	16.6	
Cc1cc(N=C2C=C(Br)C(=O)C(Br)=C2)cc(CN(CC(=O)O)CC(=O)O)c1O	> 45.7	0.501	
COc1ccc(C2(C(OC)OC)NC(=O)N(C)C2=O)cc1 (stereo not drawn)	> 200	> 200	
O=C1/C(=C/c2ccccc2)CN(C(=O)Oc2ccccc2)C/C1=C\c1ccccc1			inactive
